Data taken from patent publication US10561703B2, “Method of modulating sex hormone levels using a sex hormone secretion modulator” (GEMVAX & KAEL CO., LTD., priority 2013, dated 2020).

Test system: Estradiol E2
Assay: Estradiol E2 level in blood (serum CLIA) after repeated sc PEP-1
Type: in vivo, SD rats
Procedure: PEP-1 (peptide of SEQ ID NO: 1), lyophilized white powder, obtained according to the method mentioned in example 1 was dissolved in 0.9% of saline, considering the correction factor of PEP-1 (purity: 94.13%, content: 92.36%, correction factor: 1.15). 50 mg/mL stock solution was further diluted into 20 mg/mL, 2 mg/mL, and 1 mg/mL with 0.9% saline, and stored at 4° C. for a week until the use.
The purpose of this example is to confirm the change of sexual hormones in blood from SD rats with 7 days repeated daily administration of SEQ ID NO: 1 peptide, PEP-1. This experiment followed the Ethics Regulation of Animal Test by KAMSI Inc. (Korea Animal Medical Science Institute). In addition, this experiment, Non-GLP experiment, referred to the MFDS (Ministry of Food and Drug Safety) notification; Agent 2013-40 (5th April 2013), Principles of Good Laboratory Practice (1997).
SPF Rats (Crlj:CD(SD)) were purchased from ORIENTBio Inc. (Mokdong-ri, Buk-myeon, Gapyeong-gun, Gyeonggi-do, Republic of Korea). 75 male (6.5 weeks old and 190˜210 g) and 75 female (6.5 weeks old and 160˜180 g) rats were monitored for 4 days, and 64 of male and female rats (each) were selected for the experiment. Raising condition is as follows; 23±3° C. of temperature, […] of relative humidity, 10˜20 times/hr of number of air changes, 12 hours (8 a.m.˜8 p.m.) of lighting with 150˜300 Lux of intensity.
64 male and female […] (mentioned above) were divided into 8 groups. Administration regimen, for example, drugs, routes, dosages, and volumes were as follows:
The detailed administration regimen is as follows; once a day, twice a day and twice a week in each experimental group. Injection initiated at 10 a.m. every day, and each rat was injected at one minute intervals. Rats in Group 9, 10, 13 and 14 were injected twice a week. Administration of high dose test agent preceded that of low dose. The volume of injection was calculated using recently measured weight of rats, and it was 5 mL/kg. Subcutaneous injection was performed as follows; assistant tilted the back of rat upward, and experimenter sterilized the back of rat with 70% alcohol, followed by subcutaneous injection of test agent with 26 G syringe.
1.4 mL of blood sample (0.7 mL of serum) was collected after measurement of weight (Day 0). Next day (1 Day), 1.4 mL of blood sample (0.7 mL of serum) was collected twice after injection of test agent (4 hrs and 8 hrs after administration of test agent). […]
A CLIA (Chemi-Luminescence Immune Assay) Kit was used to analyze Testosterone, Estradiol E2, FSH (Follicle stimulating hormone), and LH (Luteinizing hormone). […]
Estradiol E2 was analyzed using the samples prepared from example 2. […] As mentioned in example 2, CLIA (Chemi-luminescence immune assay) Kit was used, following the manufacture's protocol. […]

In the case of “EARPALLTSRLRFIPK (listed as Homo sapiens) [PEP-1, hormone secretion modulator / GnRH analog]”, the “Estradiol E2 level” value (female group, Day 1, all groups (PEP-1 and/or vehicle), baseline 20-50 pg/mL) is reported as 16 to 30 pg/mL, the “Effect on Estradiol E2 level” value (female group, level recovered from Day 3-4) is reported as “inhibited the Estradiol E2 level in the beginning” and the “Effect on Estradiol E2 level” value (male rat) is reported as “does not have effect on Estradiol E2 level”. The “Estradiol E2 level” value (male rat, initial level remained same until Day 7) was 15 to 20 pg/mL.
